Key:
Assay in all cases: Nanosyn kinase profiling
Type in all cases: biochemical
Conditions in all cases: read-out: Percentage inhibition; for inhibition at 0.1 µM: 0.1 µM inhibitor; for inhibition at 1 µM: 1 µM inhibitor
KIT = biological target: T1, KIT (Homo sapiens, UniProt P10721)
T1 construct: purchased Nanosyn (enzymatic panel); SGC in-house recombinant human kinases (DSF panel); Invitrogen (ALK1-6)
In short: (§1)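 Percent inhibition of each kinase was measured with the inhibitor at 0.1 µM and at 1 µM, as part of a 200-kinase human selectivity panel.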

CK1γ2 = biological target: T2, CK1γ2 (Homo sapiens, UniProt P78368)
T2 construct: purchased Nanosyn (enzymatic panel); SGC in-house recombinant human kinases (DSF panel); Invitrogen (ALK1-6)
In short: as §1

PHKγ2 = biological target: T3, PHKγ2 (Homo sapiens, UniProt P15735)
T3 construct: purchased Nanosyn (enzymatic panel); SGC in-house recombinant human kinases (DSF panel); Invitrogen (ALK1-6)
T3 sequence (P15735 1-406): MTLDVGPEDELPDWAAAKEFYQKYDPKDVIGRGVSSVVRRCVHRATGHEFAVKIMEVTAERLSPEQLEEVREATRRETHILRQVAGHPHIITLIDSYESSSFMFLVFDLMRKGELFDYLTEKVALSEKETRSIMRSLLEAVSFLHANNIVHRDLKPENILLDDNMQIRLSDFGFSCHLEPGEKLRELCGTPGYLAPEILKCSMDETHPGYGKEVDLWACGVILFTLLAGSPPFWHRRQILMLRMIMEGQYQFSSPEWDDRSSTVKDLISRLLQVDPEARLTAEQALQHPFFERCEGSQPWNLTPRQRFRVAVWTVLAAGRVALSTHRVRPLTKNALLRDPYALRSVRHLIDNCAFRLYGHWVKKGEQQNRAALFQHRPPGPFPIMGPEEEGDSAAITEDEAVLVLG
In short: as §1

MER = biological target: T4, MER (Homo sapiens, UniProt Q12866)
T4 construct: purchased Nanosyn (enzymatic panel); SGC in-house recombinant human kinases (DSF panel); Invitrogen (ALK1-6)
T4 sequence (Q12866 21-999): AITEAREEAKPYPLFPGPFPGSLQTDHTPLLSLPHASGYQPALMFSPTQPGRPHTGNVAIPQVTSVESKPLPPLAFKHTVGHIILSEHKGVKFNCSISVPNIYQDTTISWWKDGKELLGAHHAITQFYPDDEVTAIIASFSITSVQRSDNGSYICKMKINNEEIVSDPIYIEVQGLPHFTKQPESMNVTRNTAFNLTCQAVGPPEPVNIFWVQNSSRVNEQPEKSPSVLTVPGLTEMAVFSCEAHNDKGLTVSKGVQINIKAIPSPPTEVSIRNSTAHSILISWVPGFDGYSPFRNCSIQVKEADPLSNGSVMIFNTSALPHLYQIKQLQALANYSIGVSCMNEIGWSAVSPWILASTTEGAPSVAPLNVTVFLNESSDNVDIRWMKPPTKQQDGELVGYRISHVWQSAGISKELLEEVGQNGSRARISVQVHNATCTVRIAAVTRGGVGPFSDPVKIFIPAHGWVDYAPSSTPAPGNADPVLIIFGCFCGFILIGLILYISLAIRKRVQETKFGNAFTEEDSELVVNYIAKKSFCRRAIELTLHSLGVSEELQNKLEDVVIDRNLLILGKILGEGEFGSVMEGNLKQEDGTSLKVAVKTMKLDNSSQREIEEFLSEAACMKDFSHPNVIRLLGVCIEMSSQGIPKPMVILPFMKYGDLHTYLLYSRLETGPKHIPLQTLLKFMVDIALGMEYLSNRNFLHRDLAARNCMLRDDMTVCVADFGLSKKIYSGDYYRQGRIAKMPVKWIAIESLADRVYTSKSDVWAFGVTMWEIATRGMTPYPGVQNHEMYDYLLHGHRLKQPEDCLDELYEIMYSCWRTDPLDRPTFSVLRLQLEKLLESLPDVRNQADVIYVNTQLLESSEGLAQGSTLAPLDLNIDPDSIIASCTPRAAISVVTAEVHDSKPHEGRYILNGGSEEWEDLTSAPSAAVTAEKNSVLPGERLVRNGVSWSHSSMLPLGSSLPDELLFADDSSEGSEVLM
In short: as §1

CDK6/cycD3 = biological target: T5, CDK6/cycD3 (Homo sapiens, UniProt Q00534)
T5 construct: purchased Nanosyn (enzymatic panel); SGC in-house recombinant human kinases (DSF panel); Invitrogen (ALK1-6)
In short: as §1

SPHK2 = biological target: T6, SPHK2 (Homo sapiens, UniProt Q9NRA0)
T6 construct: purchased Nanosyn (enzymatic panel); SGC in-house recombinant human kinases (DSF panel); Invitrogen (ALK1-6)
T6 sequence (Q9NRA0 1-654): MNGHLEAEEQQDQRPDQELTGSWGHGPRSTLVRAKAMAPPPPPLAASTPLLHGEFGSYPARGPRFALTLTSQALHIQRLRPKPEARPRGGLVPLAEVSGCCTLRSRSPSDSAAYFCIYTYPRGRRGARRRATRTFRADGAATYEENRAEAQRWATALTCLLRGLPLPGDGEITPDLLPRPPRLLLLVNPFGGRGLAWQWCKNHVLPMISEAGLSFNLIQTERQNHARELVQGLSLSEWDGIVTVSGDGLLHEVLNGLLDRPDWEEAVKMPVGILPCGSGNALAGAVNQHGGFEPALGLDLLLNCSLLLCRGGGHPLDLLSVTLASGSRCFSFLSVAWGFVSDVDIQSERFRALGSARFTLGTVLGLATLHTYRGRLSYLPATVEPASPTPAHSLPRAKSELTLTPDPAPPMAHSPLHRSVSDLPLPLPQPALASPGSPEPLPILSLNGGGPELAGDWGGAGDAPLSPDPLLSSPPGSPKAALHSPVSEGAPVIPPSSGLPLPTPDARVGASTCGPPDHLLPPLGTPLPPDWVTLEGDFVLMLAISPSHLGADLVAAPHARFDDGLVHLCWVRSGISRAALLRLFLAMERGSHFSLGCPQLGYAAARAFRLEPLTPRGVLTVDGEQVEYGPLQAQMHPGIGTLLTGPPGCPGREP
In short: as §1

PYK2 = biological target: T7, PYK2 (Homo sapiens, UniProt Q14289)
T7 construct: purchased Nanosyn (enzymatic panel); SGC in-house recombinant human kinases (DSF panel); Invitrogen (ALK1-6)
In short: as §1

PAK6 = biological target: T8, PAK6 (Homo sapiens, UniProt Q9NQU5)
T8 construct: purchased Nanosyn (enzymatic panel); SGC in-house recombinant human kinases (DSF panel); Invitrogen (ALK1-6)
In short: as §1

ROCK1 = biological target: T9, ROCK1 (Homo sapiens, UniProt Q13464)
T9 construct: purchased Nanosyn (enzymatic panel); SGC in-house recombinant human kinases (DSF panel); Invitrogen (ALK1-6)
In short: as §1

MAPKAPK2 = biological target: T10, MAPKAPK2 (Homo sapiens, UniProt P49137)
T10 construct: purchased Nanosyn (enzymatic panel); SGC in-house recombinant human kinases (DSF panel); Invitrogen (ALK1-6)
In short: as §1

BRK = biological target: T11, BRK (Homo sapiens, UniProt Q13882)
T11 construct: purchased Nanosyn (enzymatic panel); SGC in-house recombinant human kinases (DSF panel); Invitrogen (ALK1-6)
In short: as §1

T5 sequence (Q00534 whole entry): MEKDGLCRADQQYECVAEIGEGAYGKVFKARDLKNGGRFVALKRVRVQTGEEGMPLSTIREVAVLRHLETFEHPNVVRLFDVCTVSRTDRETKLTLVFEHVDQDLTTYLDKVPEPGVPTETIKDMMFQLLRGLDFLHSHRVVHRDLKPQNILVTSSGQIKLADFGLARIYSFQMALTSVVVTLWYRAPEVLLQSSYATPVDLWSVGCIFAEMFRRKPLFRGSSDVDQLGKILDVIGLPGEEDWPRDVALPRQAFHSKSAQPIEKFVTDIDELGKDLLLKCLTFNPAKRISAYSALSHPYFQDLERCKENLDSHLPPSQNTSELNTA
T5 sequence (P30281 whole entry partner): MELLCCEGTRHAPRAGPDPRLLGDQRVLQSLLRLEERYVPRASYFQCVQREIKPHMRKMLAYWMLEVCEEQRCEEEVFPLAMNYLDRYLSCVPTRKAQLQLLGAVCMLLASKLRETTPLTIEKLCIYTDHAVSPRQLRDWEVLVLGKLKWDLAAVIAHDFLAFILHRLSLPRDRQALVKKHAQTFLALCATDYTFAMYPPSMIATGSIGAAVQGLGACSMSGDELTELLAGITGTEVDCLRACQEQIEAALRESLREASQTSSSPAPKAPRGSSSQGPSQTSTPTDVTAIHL
T11 sequence (Q13882 whole entry): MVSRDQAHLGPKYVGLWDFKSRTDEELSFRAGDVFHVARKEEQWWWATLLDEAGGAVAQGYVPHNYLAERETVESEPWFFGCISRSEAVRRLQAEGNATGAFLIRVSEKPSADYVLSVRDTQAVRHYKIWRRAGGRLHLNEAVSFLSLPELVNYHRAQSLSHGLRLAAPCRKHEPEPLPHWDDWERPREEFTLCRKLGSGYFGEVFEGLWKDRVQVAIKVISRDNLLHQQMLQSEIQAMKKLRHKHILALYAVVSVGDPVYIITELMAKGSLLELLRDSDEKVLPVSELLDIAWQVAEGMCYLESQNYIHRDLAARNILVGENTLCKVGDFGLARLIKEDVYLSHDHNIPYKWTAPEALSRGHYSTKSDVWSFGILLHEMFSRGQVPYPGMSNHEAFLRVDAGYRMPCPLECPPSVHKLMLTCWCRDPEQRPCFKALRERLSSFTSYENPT
T7 sequence (Q14289 whole entry): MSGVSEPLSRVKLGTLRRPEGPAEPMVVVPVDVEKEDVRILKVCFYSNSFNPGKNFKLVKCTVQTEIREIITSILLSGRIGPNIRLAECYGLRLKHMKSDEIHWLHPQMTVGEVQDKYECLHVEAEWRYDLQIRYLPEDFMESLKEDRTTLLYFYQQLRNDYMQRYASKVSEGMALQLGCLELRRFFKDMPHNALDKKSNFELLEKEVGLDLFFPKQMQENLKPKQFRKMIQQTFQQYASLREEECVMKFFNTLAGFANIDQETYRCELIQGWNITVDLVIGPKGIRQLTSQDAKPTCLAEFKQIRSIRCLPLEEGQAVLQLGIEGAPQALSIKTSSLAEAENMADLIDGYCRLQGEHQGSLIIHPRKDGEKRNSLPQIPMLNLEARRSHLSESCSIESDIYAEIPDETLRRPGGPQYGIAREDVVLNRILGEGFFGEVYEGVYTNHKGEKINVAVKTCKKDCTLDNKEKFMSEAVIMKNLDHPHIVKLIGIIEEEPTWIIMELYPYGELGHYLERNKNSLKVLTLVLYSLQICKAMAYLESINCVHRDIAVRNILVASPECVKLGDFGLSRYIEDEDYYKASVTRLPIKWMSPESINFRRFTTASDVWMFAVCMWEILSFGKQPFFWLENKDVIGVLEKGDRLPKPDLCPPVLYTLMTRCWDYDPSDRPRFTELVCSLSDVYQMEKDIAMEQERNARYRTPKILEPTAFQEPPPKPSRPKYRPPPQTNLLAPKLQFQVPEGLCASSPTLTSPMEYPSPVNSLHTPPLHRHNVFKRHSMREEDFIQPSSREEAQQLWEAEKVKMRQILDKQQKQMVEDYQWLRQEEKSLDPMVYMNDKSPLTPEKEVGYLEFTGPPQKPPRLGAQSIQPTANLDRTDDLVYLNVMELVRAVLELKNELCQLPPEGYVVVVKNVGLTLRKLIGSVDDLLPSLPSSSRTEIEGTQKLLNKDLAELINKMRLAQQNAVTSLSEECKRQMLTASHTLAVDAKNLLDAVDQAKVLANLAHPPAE
T10 sequence (P49137 whole entry): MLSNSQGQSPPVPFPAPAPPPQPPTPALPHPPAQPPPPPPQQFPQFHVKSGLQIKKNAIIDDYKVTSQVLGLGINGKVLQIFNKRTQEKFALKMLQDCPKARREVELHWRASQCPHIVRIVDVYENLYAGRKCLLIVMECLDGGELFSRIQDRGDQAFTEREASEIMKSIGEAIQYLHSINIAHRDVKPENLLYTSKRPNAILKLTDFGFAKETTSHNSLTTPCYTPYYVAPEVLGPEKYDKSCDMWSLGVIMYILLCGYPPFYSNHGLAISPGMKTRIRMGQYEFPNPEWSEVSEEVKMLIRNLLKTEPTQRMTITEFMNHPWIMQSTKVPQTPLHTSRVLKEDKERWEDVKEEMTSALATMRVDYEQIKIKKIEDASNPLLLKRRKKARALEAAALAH
T8 sequence (Q9NQU5 whole entry): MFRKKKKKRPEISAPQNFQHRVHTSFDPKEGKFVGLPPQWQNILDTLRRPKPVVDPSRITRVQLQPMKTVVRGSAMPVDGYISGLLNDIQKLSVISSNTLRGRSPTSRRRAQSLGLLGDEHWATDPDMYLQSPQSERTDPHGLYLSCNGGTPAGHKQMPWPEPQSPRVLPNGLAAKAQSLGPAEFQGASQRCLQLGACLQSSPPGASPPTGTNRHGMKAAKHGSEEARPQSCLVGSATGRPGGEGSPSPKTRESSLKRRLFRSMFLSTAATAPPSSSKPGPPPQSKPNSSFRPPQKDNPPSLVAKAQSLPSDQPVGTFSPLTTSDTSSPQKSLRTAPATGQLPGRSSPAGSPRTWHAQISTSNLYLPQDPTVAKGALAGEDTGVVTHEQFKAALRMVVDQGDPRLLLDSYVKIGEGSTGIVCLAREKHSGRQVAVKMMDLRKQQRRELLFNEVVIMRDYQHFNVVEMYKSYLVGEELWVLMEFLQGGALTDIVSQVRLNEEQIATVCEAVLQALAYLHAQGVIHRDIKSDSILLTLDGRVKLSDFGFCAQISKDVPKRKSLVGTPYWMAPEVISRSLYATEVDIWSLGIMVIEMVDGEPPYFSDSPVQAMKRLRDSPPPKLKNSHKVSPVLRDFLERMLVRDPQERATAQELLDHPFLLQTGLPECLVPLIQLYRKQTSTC
T1 sequence (P10721 26-976): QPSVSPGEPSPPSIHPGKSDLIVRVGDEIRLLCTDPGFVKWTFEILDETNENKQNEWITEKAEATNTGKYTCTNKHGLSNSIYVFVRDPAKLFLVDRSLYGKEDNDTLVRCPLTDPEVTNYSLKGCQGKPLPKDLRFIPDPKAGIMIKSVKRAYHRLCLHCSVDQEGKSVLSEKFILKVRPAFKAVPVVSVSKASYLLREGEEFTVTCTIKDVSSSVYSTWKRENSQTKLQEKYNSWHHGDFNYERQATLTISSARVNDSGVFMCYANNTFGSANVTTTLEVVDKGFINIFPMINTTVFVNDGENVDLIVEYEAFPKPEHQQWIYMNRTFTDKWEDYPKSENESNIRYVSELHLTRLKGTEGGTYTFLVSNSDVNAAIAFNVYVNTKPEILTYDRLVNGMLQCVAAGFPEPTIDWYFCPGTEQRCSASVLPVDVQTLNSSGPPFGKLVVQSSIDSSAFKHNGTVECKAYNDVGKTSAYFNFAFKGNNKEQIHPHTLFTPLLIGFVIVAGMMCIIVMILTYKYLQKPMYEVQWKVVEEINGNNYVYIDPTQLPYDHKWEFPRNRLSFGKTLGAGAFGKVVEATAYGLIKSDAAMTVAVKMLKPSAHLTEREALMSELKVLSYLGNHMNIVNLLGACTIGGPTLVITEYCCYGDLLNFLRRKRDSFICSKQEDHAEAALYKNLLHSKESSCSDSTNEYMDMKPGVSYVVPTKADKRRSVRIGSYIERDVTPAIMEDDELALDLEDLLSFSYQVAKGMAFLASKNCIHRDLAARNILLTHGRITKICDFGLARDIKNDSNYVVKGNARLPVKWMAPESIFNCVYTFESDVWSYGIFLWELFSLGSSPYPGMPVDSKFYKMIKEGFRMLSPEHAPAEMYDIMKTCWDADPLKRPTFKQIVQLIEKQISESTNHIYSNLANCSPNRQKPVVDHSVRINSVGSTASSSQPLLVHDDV
T2 sequence (P78368 whole entry): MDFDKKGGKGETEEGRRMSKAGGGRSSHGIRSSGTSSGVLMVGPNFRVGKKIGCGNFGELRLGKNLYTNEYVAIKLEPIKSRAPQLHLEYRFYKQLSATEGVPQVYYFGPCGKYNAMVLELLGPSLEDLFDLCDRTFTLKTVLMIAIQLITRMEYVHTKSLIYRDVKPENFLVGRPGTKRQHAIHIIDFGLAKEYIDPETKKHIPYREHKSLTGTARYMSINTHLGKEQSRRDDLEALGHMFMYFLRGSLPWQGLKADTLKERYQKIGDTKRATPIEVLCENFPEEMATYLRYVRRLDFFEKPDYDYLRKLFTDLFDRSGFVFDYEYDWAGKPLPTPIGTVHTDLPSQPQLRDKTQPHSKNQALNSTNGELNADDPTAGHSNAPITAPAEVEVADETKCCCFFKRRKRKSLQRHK

| SMILES | inhibition at 0.1 µM (KIT) [%] | inhibition at 1 µM (KIT) [%] | inhibition at 0.1 µM (CK1γ2) [%] | inhibition at 1 µM (CK1γ2) [%] | inhibition at 0.1 µM (PHKγ2) [%] | inhibition at 1 µM (PHKγ2) [%] | inhibition at 0.1 µM (MER) [%] | inhibition at 1 µM (MER) [%] | inhibition at 0.1 µM (CDK6/cycD3) [%] | inhibition at 1 µM (CDK6/cycD3) [%] | inhibition at 0.1 µM (SPHK2) [%] | inhibition at 1 µM (SPHK2) [%] | inhibition at 0.1 µM (PYK2) [%] | inhibition at 1 µM (PYK2) [%] | inhibition at 0.1 µM (PAK6) [%] | inhibition at 1 µM (PAK6) [%] | inhibition at 0.1 µM (ROCK1) [%] | inhibition at 1 µM (ROCK1) [%] | inhibition at 0.1 µM (MAPKAPK2) [%] | inhibition at 1 µM (MAPKAPK2) [%] | further results |
| --- | --- | --- | --- | --- | --- | --- | --- | --- | --- | --- | --- | --- | --- | --- | --- | --- | --- | --- | --- | --- | --- |
| COc1cc(-c2cc(-c3cccc(O)c3)cnc2N)cc(OC)c1OC [K02288, 3-[6-amino-5-(3,4,5-trimethoxy-phenyl)-pyridin-3-yl]-phenol] | 4 | 9.2 | -1 | 5.5 | -3 | -3 | 5.1 | 40 | 1.7 | 2.8 | -2 | 4.4 | -1 | 0 | 0.8 | 1.9 | 0.5 | 3.1 | -2 | -1 | inhibition at 0.1 µM (BRK): 13%; inhibition at 1 µM (BRK): 66% |
| c1ccc2c(-c3cnn4cc(-c5ccc(N6CCNCC6)cc5)cnc34)ccnc2c1 [LDN-193189] | 7 | 41 | 1.6 | 3.9 | 3.5 | 4.9 | 4.4 | 10 | 7.2 | 22 | -1 | -3 | 4.6 | 9 | 8.8 | 5.1 | 0 | 0.7 | 0.7 | 0 | inhibition at 0.1 µM (BRK): 13%; inhibition at 1 µM (BRK): 57% |

Source: article PMC3639963, “A New Class of Small Molecule Inhibitor of BMP Signaling” (PLoS ONE, 2013)
